Experimental data reported in ChEMBL document CHEMBL1201862, “PubChem BioAssay data set” (2004).
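Assay format: 96-well plates, 48-hour exposure. The concentration for 50% growth inhibition is given as GI50.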 The source made the active and inactive calls. No stated cut-off is given here; in the data, active = GI50 up to about 1.1 µM and inactive = higher. Non-standard residues stand in square brackets, D forms with d. Residues, ends and D or L forms follow the SMILES beside them. *: point of attachment. NMeF = CN[CH](Cc1ccccc1)C(=O)O; NMeV = CN[CH](C(=O)O)C(C)C; Boc = CC(C)(C)OC(=O)*

Legend:
Experiment in all cases: inhibition of tumour cell growth, NCI panel, 48 h
A549 = test system: A549
CAKI-1 = test system: CAKI-1
DMS-273 = test system: DMS-273
HL-60 = test system: HL-60
HT-29 = test system: HT-29
K562 = test system: K562
KM12 = test system: KM12
LOX IMVI = test system: LOX IMVI
M19-MEL = test system: M19-MEL
Malme-3M = test system: Malme-3M
OVCAR-5 = test system: OVCAR-5
SF-268 = test system: SF-268
SK-MEL-28 = test system: SK-MEL-28
SK-OV-3 = test system: SK-OV-3
SN12C = test system: SN12C
UACC-257 = test system: UACC-257
SR = test system: SR

Measured: GI50

O=C(O)c1ccc(NC(=O)C2C(=O)C(=O)N(c3ccc(C(=O)O)cc3)C2=O)cc1 (stereo not drawn)
inactive: A549 > 100 µM | CAKI-1 > 100 µM | DMS-273 > 100 µM | HL-60 > 100 µM | HT-29 > 100 µM | K562 > 100 µM | KM12 > 100 µM | LOX IMVI > 100 µM | M19-MEL > 100 µM | Malme-3M > 100 µM | OVCAR-5 > 100 µM | SF-268 > 100 µM | SK-MEL-28 > 100 µM | SK-OV-3 > 100 µM | SN12C > 100 µM | UACC-257 > 100 µM

COc1ccc(C2C(Cl)C(=O)N2NC(=O)c2ccccc2O)cc1OC (stereo not drawn)
inactive: A549 > 100 µM | DMS-273 > 100 µM | HL-60 41 µM | HT-29 65.8 µM | K562 50.2 µM | KM12 92.3 µM | LOX IMVI 36.5 µM | M19-MEL > 100 µM | Malme-3M 65.3 µM | SF-268 54.2 µM | SK-MEL-28 > 100 µM | SK-OV-3 90.2 µM | SN12C > 100 µM | UACC-257 93.8 µM

[N-]=[N+]=Nc1c(Br)c(=O)[nH]c(=O)n1COCCO
inactive: A549 > 100 µM | CAKI-1 > 100 µM | DMS-273 > 100 µM | HL-60 > 100 µM | HT-29 > 100 µM | K562 > 100 µM | KM12 > 100 µM | LOX IMVI > 100 µM | M19-MEL > 100 µM | Malme-3M > 100 µM | OVCAR-5 > 100 µM | SF-268 > 100 µM | SK-MEL-28 > 100 µM | SN12C > 100 µM | SR > 100 µM | UACC-257 > 100 µM

COc1cc2c3c(c1OC)C1(C=CC(=O)C=C1)CC3N(C(=O)OC(C)(C)C(Cl)(Cl)Cl)CC2 (stereo not drawn)
inactive: A549 10.5 µM | CAKI-1 14.9 µM | DMS-273 9.38 µM | HL-60 1.95 µM | HT-29 8.53 µM | K562 4.68 µM | KM12 9.2 µM | LOX IMVI 10.1 µM | M19-MEL 10.8 µM | Malme-3M 14.2 µM | OVCAR-5 2.52 µM | SF-268 13.1 µM | SK-OV-3 26.2 µM | SN12C 11.6 µM | SR 3.5 µM | UACC-257 10.4 µM

O=C(CC(=O)N1N=C(c2ccccc2)C(/N=N/c2ccc(Cl)cc2)C1=O)Nc1ccccc1Cl (stereo not drawn)
inactive: A549 13.2 µM | CAKI-1 19.5 µM | DMS-273 32.2 µM | HL-60 26.6 µM | HT-29 37.4 µM | K562 36.7 µM | KM12 33.8 µM | LOX IMVI 26.2 µM | M19-MEL 51.3 µM | OVCAR-5 > 100 µM | SF-268 22.5 µM | SK-MEL-28 20.6 µM | SK-OV-3 18.8 µM | SN12C 92 µM | SR 24.7 µM

CC(C)C(NC(=O)OC(C)(C)C)C(=O)N(C)C(Cc1ccccc1)C(=O)N(C)C(C(=O)N(C)C(C(=O)O)C(C)C)C(C)C (stereo not drawn) (Boc-V[NMeF][NMeV][NMeV]-OH; configuration not given here)
inactive: A549 > 100 µM | DMS-273 > 100 µM | HL-60 > 100 µM | HT-29 > 100 µM | K562 > 100 µM | KM12 > 100 µM | LOX IMVI > 100 µM | M19-MEL > 100 µM | Malme-3M > 100 µM | SF-268 > 100 µM | SK-MEL-28 > 100 µM | SN12C > 100 µM | SR > 100 µM | UACC-257 > 100 µM

O=C(CC(=O)C1CCOC1=O)C(=O)Nc1cccc(Cl)c1 (stereo not drawn)
inactive: A549 > 100 µM | CAKI-1 > 100 µM | DMS-273 > 100 µM | HL-60 > 100 µM | HT-29 > 100 µM | K562 > 100 µM | KM12 > 100 µM | LOX IMVI > 100 µM | M19-MEL > 100 µM | Malme-3M > 100 µM | OVCAR-5 > 100 µM | SF-268 > 100 µM | SK-MEL-28 > 100 µM | SK-OV-3 > 100 µM | SN12C > 100 µM | UACC-257 > 100 µM

CCOC(=O)c1ccc(N2C(=O)Cc3ccccc3C2=O)cc1
inactive: A549 > 100 µM | DMS-273 > 100 µM | HT-29 > 100 µM | K562 > 100 µM | KM12 > 100 µM | M19-MEL > 100 µM | Malme-3M > 100 µM | OVCAR-5 > 100 µM | SF-268 > 100 µM | SK-MEL-28 > 100 µM | SK-OV-3 > 100 µM | SN12C > 100 µM | SR > 100 µM | UACC-257 > 100 µM

COc1ccc2nc3cc(Cl)ccc3c(Sc3ccc(NC(C)=O)cc3)c2c1
inactive: A549 > 53.2 µM | CAKI-1 > 27 µM | DMS-273 8.09 µM | HL-60 19.4 µM | HT-29 92.3 µM | K562 9.71 µM | KM12 9.33 µM | LOX IMVI 5.73 µM | M19-MEL 10.9 µM | Malme-3M > 35.2 µM | OVCAR-5 > 29 µM | SK-MEL-28 12.8 µM | SK-OV-3 > 22.4 µM | SN12C 14.9 µM | SR 3.66 µM | UACC-257 17.4 µM

CN(C)c1ccc(/C=C/C=C\c2cc(/C=C/C=C/c3ccc(N(C)C)cc3)[s+]c3ccccc23)cc1.[O-][Cl+3]([O-])([O-])[O-]
inactive: A549 > 100 µM | CAKI-1 10 µM | DMS-273 46.1 µM | HL-60 4.53 µM | HT-29 > 100 µM | K562 > 100 µM | KM12 > 100 µM | LOX IMVI 20.1 µM | M19-MEL 15.5 µM | Malme-3M 24.4 µM | OVCAR-5 > 100 µM | SF-268 > 100 µM | SK-MEL-28 14.2 µM | SK-OV-3 43.7 µM | SN12C > 100 µM | UACC-257 59.4 µM

Cc1ccc(-c2nc3ccccc3c(=O)n2NC2OC(CO)C(O)C(O)C2O)cc1 (stereo not drawn)
inactive: A549 > 100 µM | CAKI-1 39.6 µM | DMS-273 > 100 µM | HL-60 > 100 µM | HT-29 > 100 µM | K562 > 100 µM | KM12 > 100 µM | M19-MEL > 100 µM | Malme-3M 48.2 µM | OVCAR-5 > 100 µM | SF-268 > 100 µM | SK-MEL-28 > 100 µM | SK-OV-3 > 100 µM | SN12C > 100 µM | UACC-257 > 100 µM

CCOC(=O)c1ncn2c1[nH]c(=S)c1ccccc12
inactive: A549 > 100 µM | CAKI-1 > 100 µM | DMS-273 44.1 µM | HL-60 > 100 µM | HT-29 > 100 µM | K562 91.6 µM | KM12 > 100 µM | LOX IMVI 61.7 µM | M19-MEL > 100 µM | Malme-3M > 100 µM | OVCAR-5 > 100 µM | SF-268 > 100 µM | SK-MEL-28 > 100 µM | SK-OV-3 > 100 µM | SN12C > 100 µM | UACC-257 > 100 µM

COC(=O)C1CCc2c(OC)ccc(OC)c2C1=O (stereo not drawn)
inactive: A549 > 100 µM | CAKI-1 > 100 µM | DMS-273 > 100 µM | HL-60 > 100 µM | HT-29 > 100 µM | K562 > 100 µM | KM12 > 100 µM | LOX IMVI > 100 µM | M19-MEL > 100 µM | Malme-3M > 100 µM | OVCAR-5 > 100 µM | SK-MEL-28 > 100 µM | SK-OV-3 > 100 µM | UACC-257 > 100 µM
